Literature values as cited in US9611229B2, “1,2,3-triazole-4-amine derivatives for the treatment of sigma receptor related diseases and disorders” (LABORATORIOS DEL DR. ESTEVE S.A., priority 2013, dated 2017).

Legend:
sigma 2 (σ-2) site = sigma 2 (σ-2) site (Homo sapiens (Human), UniProt Q5BJF2)
sigma 1 (σ-1) site = sigma 1 (σ-1) site (Homo sapiens (Human), UniProt Q99720)

## SKF 10047
Sigma 2 (σ-2) site
  affinity for the sigma 2 (σ-2) site: micromolar affinity
Sigma 1 (σ-1) site
  affinity for the sigma 1 (σ-1) site: nanomolar affinity
